The values below come from article PMC6301270 (MedChemComm, 2018).

For orientation: viability means a read-out of living cells in per cent, often relative to untreated cells.

This assay concerns T.b. brucei (strain 427) bloodstream form parasites. Description: T.b. brucei single concentration screen (10 μM). The following applies: Trypanosoma brucei, read-out: T.b.brucei % viability (10 µM).

Turning to `O=C(NCc1cc(Cl)cc(Cl)c1)c1c(C(F)(F)F)nc2ccccn12` [MMV687699, FC(F)(F)c1nc2ccccn2c1C(=O)NCc3cc(Cl)cc(Cl)c3], the viability at 10 µM turned out to be 99%.
Consider `CCc1nc2ccc(Cl)cn2c1C(=O)NCc1ccc(N2CCC(c3ccc(OC(F)(F)F)cc3)CC2)cc1` [MMV687696, CCc1nc2ccc(Cl)cn2c1C(=O)NCc3ccc(cc3)N4CCC(CC4)c5ccc(OC(F)(F)F)cc5], for which the viability at 10 µM was determined as 99%.
Turning to `O=C(CN1CCOCC1)Nc1ccc2ncnc(Nc3ccc(OCc4cccc(F)c4)c(Cl)c3)c2c1` [MMV688274, Fc1cccc(COc2ccc(Nc3ncnc4ccc(NC(=O)CN5CCOCC5)cc34)cc2Cl)c1], the viability at 10 µM is 63%.
With `CCn1ncc2c(NC3CCOCC3)c(CNC(=O)c3ccnn3C)c(C)nc21` [MMV026356, CCn1ncc2c(NC3CCOCC3)c(CNC(=O)c4ccnn4C)c(C)nc12] the figure was 80%; with `O=C(N[C@H](Cc1ccccc1)C(=O)Nc1ccccc1N1CCOCC1)c1cccs1` [MMV688845, O=C(Nc1ccccc1N2CCOCC2)[C@@H](Cc3ccccc3)NC(=O)c4cccs4], 94%; with `Nc1ccc2ncnc(Nc3ccc(OCc4cccc(F)c4)c(Cl)c3)c2c1` [MMV688273, Nc1ccc2ncnc(Nc3ccc(OCc4cccc(F)c4)c(Cl)c3)c2c1], 56%.
With `CCc1ccc(S(=O)(=O)Nc2cc(CN3CCN(CCC(C)C)CC3)ccc2C)cc1` [MMV688124, CCc1ccc(cc1)S(=O)(=O)Nc2cc(CN3CCN(CCC(C)C)CC3)ccc2C] the figure was 84%.
For `O=C(c1ccc(F)cc1)N(CCNc1ccccc1)c1ccccc1` [MMV676204, Fc1ccc(cc1)C(=O)N(CCNc2ccccc2)c3ccccc3] the value was 97%; for `O=C(C1CCN(c2nnnn2-c2ccccc2)CC1)N1CCc2ccccc2C1` [MMV009135, O=C(C1CCN(CC1)c2nnnn2c3ccccc3)N4CCc5ccccc5C4], 94%.
With `COc1ccc(C2(C(=O)Nc3ccc(Br)cc3)CCCC2)cc1` [MMV200748, COc1ccc(cc1)C2(CCCC2)C(=O)Nc3ccc(Br)cc3], the viability at 10 µM worked out at 100%.
With `CC(C)(C(=O)Nc1ccc(F)cc1)n1cc(-c2ccccc2F)cn1` [MMV687239, CC(C)(C(=O)Nc1ccc(F)cc1)n2cc(cn2)c3ccccc3F] the figure was 89%.
For `NS(=O)(=O)c1cncc(-c2ccc3nccc(-c4cn[nH]c4)c3n2)c1` [MMV024101, NS(=O)(=O)c1cncc(c1)c2ccc3nccc(c4cn[nH]c4)c3n2] the value was 36%; for `CN1CCN(c2cc(-c3ccc(F)cc3)nc(-c3ccncc3)n2)CC1` [MMV688888, CN1CCN(CC1)c2cc(nc(n2)c3ccncc3)c4ccc(F)cc4], 92%.
With `COc1cccc(-n2nnnc2S(=O)(=O)Cc2ccccc2)c1` [MMV676388, COc1cccc(c1)n2nnnc2S(=O)(=O)Cc3ccccc3] the figure was 87%; with `CC1(C)OB(O)c2ccc(C3=NOC(c4cc(Cl)c(F)c(Cl)c4)(C(F)(F)F)C3)cc21` (stereo not drawn) [MMV687775, CC1(C)OB(O)c2ccc(cc12)C3=NOC(C3)(c4cc(Cl)c(F)c(Cl)c4)C(F)(F)F], 33%.
Consider `Nc1ncc(Br)cc1-c1nc2cc(Cl)cnc2[nH]1` [MMV676358, Nc1ncc(Br)cc1c2nc3cc(Cl)cnc3[nH]2], for which the viability at 10 µM was found to be 98%.
With `CCn1cnc2c(Nc3cc(F)cc(F)c3)nc(C#N)nc21` [MMV676881, CCn1cnc2c(Nc3cc(F)cc(F)c3)nc(nc12)C#N] the figure was 70%.
With `CC(C)(C)C(O)C(Oc1ccc(-c2ccccc2)cc1)n1cncn1` (stereo not drawn) [MMV688942, CC(C)(C)C(O)C(Oc1ccc(cc1)c2ccccc2)n3cncn3] the figure was 79%; with `Brc1c(-c2ccc3c(c2)OCO3)nc2ncccn12` [MMV676377, Brc1c(nc2ncccn12)c3ccc4OCOc4c3], 96%.
With `Cc1cc(Cl)c(S(=O)(=O)N2CCCC2)cc1OCC(=O)NC1CCCCC1` [MMV006833, Cc1cc(Cl)c(cc1OCC(=O)NC2CCCCC2)S(=O)(=O)N3CCCC3] the figure was 98%.
Regarding `Nc1cccnc1Nc1ccc(Cl)cc1` [MMV676524, Nc1cccnc1Nc2ccc(Cl)cc2], the viability at 10 µM was found to be 110%.
For `CNC(=O)CNc1nc(-c2ccccn2)nc2scc(-c3ccccc3)c12` [MMV1029203, CNC(=O)CNc1nc(nc2scc(c3ccccc3)c12)c4ccccn4] the value was 98%; for `CNc1cc(C)nc(C2CN(C(=O)c3n[nH]c4ccccc34)CCO2)c1` (stereo not drawn) [MMV689709, O=C(N1CC(C2=CC(NC)=CC(C)=N2)OCC1)C3=NNC4=C3C=CC=C4], 87%; for `COc1cccc(OC)c1C(=O)Nc1ccc(Cl)c(-c2nc3ccccc3s2)c1` [MMV676472, COc1cccc(OC)c1C(=O)Nc2ccc(Cl)c(c2)c3nc4ccccc4s3], 100%.
With `Nc1ncnc2c1ncn2[C@@H]1O[C@H](COS(=O)(=O)NC(=O)c2ccccc2O)[C@@H](O)[C@H]1O` [MMV687700, Nc1ncnc2c1ncn2[C@@H]3O[C@H](COS(=O)(=O)NC(=O)c4ccccc4O)[C@@H](O)[C@H]3O] the figure was 104%; with `O=C1N(Cc2cc3ccccc3s2)CC2CN(Cc3ccccc3)CCN12` (stereo not drawn) [MMV084603, O=C1N(Cc2cc3ccccc3s2)CC4CN(Cc5ccccc5)CCN14], 99%.
For `COc1cc2ncnc(NC3CCN(Cc4ccccc4)CC3)c2cc1OC` [MMV006741, COc1cc2ncnc(NC3CCN(Cc4ccccc4)CC3)c2cc1OC] the value was 103%.
Regarding `Cc1ccc(NC(=O)CC2COc3ccccc3O2)cc1Cl` (stereo not drawn) [MMV676431, Cc1ccc(NC(=O)CC2COc3ccccc3O2)cc1Cl], the viability at 10 µM was determined as 77%.
For `CC(c1cc(Cl)cc(Cl)c1)N(C)c1ncc2c(N)nc(N)nc2n1` (stereo not drawn) [MMV689437, CC(N(C)c1ncc2c(N)nc(N)nc2n1)c3cc(Cl)cc(Cl)c3] the value was 98%.
With `Cc1cc(C(=O)Nc2cnn(Cc3ccc(Cl)cc3Cl)c2)no1` [MMV009054, Cc1onc(c1)C(=O)Nc2cnn(Cc3ccc(Cl)cc3Cl)c2] the figure was 89%.
For `COCC(C)NC(=O)CSc1ncnc2sc(-c3ccccc3)cc12` (stereo not drawn) [MMV676536, COCC(C)NC(=O)CSc1ncnc2sc(cc12)-c1ccccc1] the value was 97%; for `CC(C)(C)OC(=O)N1CCN(c2nccc(-c3ccc(-c4ccc(Cl)cc4)s3)n2)CC1` [MMV688416, CC(C)(C)OC(=O)N1CCN(CC1)c2nccc(n2)c3ccc(s3)c4ccc(Cl)cc4], 94%.
For the compound `COc1cc(NC(=O)Cc2nn(C)c(=O)c3ccccc23)ccc1Cl` [MMV676053, COc1cc(NC(=O)CC2=NN(C)C(=O)c3ccccc23)ccc1Cl], the viability at 10 µM came to 100%.
For `O=C1O[C@@H](COc2ccon2)CN1c1cc(F)c(C2=CCN(Cc3ccccc3)CC2)c(F)c1` [MMV687813, Fc1cc(cc(F)c1C2=CCN(Cc3ccccc3)CC2)N4C[C@H](COc5ccon5)OC4=O] the value was 113%; for `Cc1cc(C(=O)Nc2ccc(-c3ccccc3)cc2)no1` [MMV020152, Cc1onc(c1)C(=O)Nc2ccc(cc2)c3ccccc3], 85%; for `Clc1ccc(-n2cc(COc3ccnc4ccccc34)nn2)cc1` [MMV675994, Clc1ccc(cc1)n2cc(COc3ccnc4ccccc34)nn2], 91%.
For `COc1ccc(-c2cnc3ccc(NCc4ccc(S(N)(=O)=O)cc4)nn23)cn1` [MMV010545, COc1ccc(cn1)c2cnc3ccc(NCc4ccc(cc4)S(=O)(=O)N)nn23] the value was 97%; for `Nc1ncnc2c1c(Cc1cccc3ccccc13)nn2CC1CCNCC1` [MMV676182, Nc1ncnc2c1c(Cc3cccc4ccccc34)nn2CC5CCNCC5], 98%.
For `CS(=O)(=O)N1CCC(CCn2nc(Cc3cccc4ccccc34)c3c(N)ncnc32)CC1` [MMV688470, CS(=O)(=O)N1CCC(CCn2nc(Cc3cccc4ccccc34)c3c(N)ncnc23)CC1] the value was 99%; for `CNc1nnc(Sc2cnn(-c3ccccc3)c(=O)c2Cl)s1` [MMV688763, CNc1nnc(SC2=C(Cl)C(=O)N(N=C2)c3ccccc3)s1], 49%; for `c1ccc(C[C@@H]2CN(c3nccc(Oc4ccc(-n5ccnc5)cc4)n3)CCN2)cc1` [MMV687749, C([C@@H]1CN(CCN1)c2nccc(Oc3ccc(cc3)n4ccnc4)n2)c5ccccc5], 60%.
`COc1ccc(-c2cnc3ccc(N4CCCC4)nn23)cc1OC` [MMV023985, COc1ccc(cc1OC)c2cnc3ccc(nn23)N4CCCC4]: the viability at 10 µM is 91%.
With `Cc1cc(O)nc(-n2nc(C)cc2C)n1` [MMV393995, Cc1cc(O)nc(n1)n2nc(C)cc2C] the figure was 71%.
`CCN(CC)S(=O)(=O)c1ccc(Cl)c(C(=O)Nc2ccc3nc(C)sc3c2)c1` [MMV019721, CCN(CC)S(=O)(=O)c1ccc(Cl)c(c1)C(=O)Nc2ccc3nc(C)sc3c2]: the viability at 10 µM worked out at 62%.
With `Cc1cc(NCCc2ccccc2)nc(NC(=N)Nc2ccc(Cl)cc2)n1` [MMV021660, Cc1cc(NCCc2ccccc2)nc(NC(=N)Nc3ccc(Cl)cc3)n1] the figure was 47%.
Regarding `COc1ccc(CCN2CCC(NCc3cccc(N(C)C)c3)CC2)cc1` [MMV011511, COc1ccc(CCN2CCC(CC2)NCc3cccc(c3)N(C)C)cc1], the viability at 10 µM was found to be 66%.
For `NCC(=O)N1CCn2c(nc(-c3ccccc3)c2Nc2ccc3c(c2)OCO3)C1` [MMV011691, NCC(=O)N1CCn2c(C1)nc(c2Nc3ccc4OCOc4c3)c5ccccc5] the value was 120%; for `O=C(NCCc1c[nH]c2ccccc12)c1cc2ccccc2oc1=O` [MMV676539, O=C(NCCc1c[nH]c2ccccc12)C3=Cc4ccccc4OC3=O], 83%.
Consider `CC(=O)NC[C@H]1CN(c2ccc(N3CCSCC3)c(F)c2)C(=O)O1` [MMV688756, CC(=O)NC[C@H]1CN(C(=O)O1)c2ccc(N3CCSCC3)c(F)c2], for which the viability at 10 µM amounted to 106%.
`COc1cc(CN2CCC3(C=Cc4ccccc43)CC2)cc2c1OCO2` [MMV688941, COc1cc(CN2CCC3(CC2)C=Cc4ccccc34)cc5OCOc15]: the viability at 10 µM is 114%.
Take `O=C(NCCN1CCCC1)c1cc(NCCN2CCOCC2)nc2ccc(Cl)cc12` [MMV634140, Clc1ccc2nc(cc(c2c1)C(=O)NCCN1CCCC1)NCCN1CCOCC1]: the viability at 10 µM is 89%.
